Data as given in patent publication US10428044B2, “3-amino-1,5,6,7-tetrahydro-4H-indol-4-ones” (Bayer Pharma Aktiengesellschaft, priority 2014, dated 2019).
Counter-ions that a name gives are not always drawn.

Biological target: (recombinant) catalytic domain of human Bub1 (amino acids 704-1085) (Homo sapiens (Human), UniProt O43683)
Test: Bub1 kinase assay (TR-FRET)
Format: biochemical
Conditions: ATP 10 μM final, peptide substrate 1 μM final, 60 min at 22° C., read-out: Biological Assay: Bub1 kinase assay median IC50
Outline: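 Readout was TR-FRET between a Eu-labeled antibody complex recognizing phosphoserine and streptavidin-XL665 on the biotinylated peptide, after EDTA stop and 1 h at 22° C. The kinase reaction ran for 60 min at 22° C. Values are means or medians of repeat tests, from 4-parameter fits normalized to enzyme-free and inhibitor-free controls.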

(recombinant) catalytic domain of human Bub1 (amino acids 704-1085), sequence (O43683 704-1085): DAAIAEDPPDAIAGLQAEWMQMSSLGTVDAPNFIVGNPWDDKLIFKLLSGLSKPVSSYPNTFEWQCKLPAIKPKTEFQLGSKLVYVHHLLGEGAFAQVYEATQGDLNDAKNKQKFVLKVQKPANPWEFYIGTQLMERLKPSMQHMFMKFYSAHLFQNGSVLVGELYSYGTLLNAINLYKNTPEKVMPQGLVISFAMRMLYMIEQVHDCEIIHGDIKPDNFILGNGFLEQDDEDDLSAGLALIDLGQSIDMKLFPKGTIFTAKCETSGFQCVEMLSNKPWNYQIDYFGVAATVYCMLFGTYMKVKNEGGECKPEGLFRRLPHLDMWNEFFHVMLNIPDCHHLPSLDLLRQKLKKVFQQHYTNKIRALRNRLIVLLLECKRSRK

| Structure (SMILES) | IC50 |
| --- | --- |
| CC1CC(=O)c2c(Nc3ccccc3)c(-c3ccncc3)n(C)c2C1 (stereo not drawn) [Example 178, 1,6-dimethyl-3-(phenylamino)-2-(pyridin-4-yl)-1,5,6,7-tetrahydro-4H-indol-4-one] | 99.6 nM |
| Cn1c2c(c(Nc3ccccc3)c1-c1ccncc1)C(=O)CC(C)(C)C2 [Example 179, 1,6,6-trimethyl-3-(phenylamino)-2-(pyridin-4-yl)-1,5,6,7-tetrahydro-4H-indol-4-one] | 162 nM |
| CC1(C)CC(=O)c2c(Nc3ccccc3)c(-c3ccncc3)n(CC(F)(F)F)c2C1 [Example 180, 6,6-dimethyl-3-(phenylamino)-2-(pyridin-4-yl)-1-(2,2,2-trifluoroethyl)-1,5,6,7-tetrahydro-4H-indol-4-one] | 199 nM |
| CCn1c2c(c(Nc3ccccc3)c1-c1ccncc1)C(=O)CC(C)(C)C2 [Example 181, 1-ethyl-6,6-dimethyl-3-(phenylamino)-2-(pyridin-4-yl)-1,5,6,7-tetrahydro-4H-indol-4-one] | 32.7 nM |
| CCCn1c2c(c(Nc3ccccc3)c1-c1ccncc1)C(=O)CC(C)(C)C2 [Example 182, 6,6-dimethyl-3-(phenylamino)-1-propyl-2-(pyridin-4-yl)-1,5,6,7-tetrahydro-4H-indol-4-one] | 68.9 nM |
| CC1(C)CC(=O)c2c(Nc3ccccc3)c(-c3ccncc3)n(CCO)c2C1 [Example 184, 1-(2-hydroxyethyl)-6,6-dimethyl-3-(phenylamino)-2-(pyridin-4-yl)-1,5,6,7-tetrahydro-4H-indol-4-one] | 200 nM |
| CC1(C)CC(=O)c2c(Nc3ccccc3)c(-c3ccncc3)n(CC(N)=O)c2C1 [Example 185, 2-[3-anilino-6,6-dimethyl-4-oxo-2-(pyridin-4-yl)-4,5,6,7-tetrahydro-1H-indol-1-yl]acetamide formic acid salt] | 1300 nM |
| CC1(C)CC(=O)c2c(Nc3ccccc3)c(-c3ccncc3)n(Cc3ccccc3)c2C1 [Example 186, 1-benzyl-6,6-dimethyl-3-(phenylamino)-2-(pyridin-4-yl)-1,5,6,7-tetrahydro-4H-indol-4-one] | 2940 nM |
| CCn1c2c(c(Nc3ccccc3)c1-c1ccnc(NC(C)=O)c1)C(=O)CC(C)(C)C2 [Example 187, N-{4-[1-ethyl-6,6-dimethyl-4-oxo-3-(phenylamino)-4,5,6,7-tetrahydro-1H-indol-2-yl]pyridin-2-yl}acetamide] | 52.3 nM |
| CC1(C)CC(=O)c2c(Nc3ccccc3)c(-c3ccncc3)n(CC(F)F)c2C1 [Example 188, 1-(2,2-difluoroethyl)-6,6-dimethyl-3-(phenylamino)-2-(pyridin-4-yl)-1,5,6,7-tetrahydro-4H-indol-4-one] | 50.6 nM |
| CC(C)[n+]1ccc(-c2[nH]c3c(c2Nc2ccccc2)C(=O)CC(C)(C)C3)cc1 [Example 189, 4-[6,6-dimethyl-4-oxo-3-(phenylamino)-4,5,6,7-tetrahydro-1H-indol-2-yl]-1-(propan-2-yl)pyridinium iodide] | 259 nM |
| CC1(C)CC(=O)c2c([nH]c(-c3cc[n+](CC(F)(F)F)cc3)c2Nc2ccccc2)C1 [Example 190, 4-[6,6-dimethyl-4-oxo-3-(phenylamino)-4,5,6,7-tetrahydro-1H-indol-2-yl]-1-(2,2,2-trifluoroethyl)pyridinium trifluoromethanesulfonate] | 475 nM |
| CC1(C)CC(=O)c2c([nH]c(-c3cc[n+](CCCO)cc3)c2Nc2ccccc2)C1 [Example 191, 4-[6,6-dimethyl-4-oxo-3-(phenylamino)-4,5,6,7-tetrahydro-1H-indol-2-yl]-1-(3-hydroxypropyl)pyridinium iodide] | 326 nM |
| CC1(C)CC(=O)c2c([nH]c(-c3cc[n+](CC(F)F)cc3)c2Nc2ccccc2)C1 [Example 192, 4-[6,6-dimethyl-4-oxo-3-(phenylamino)-4,5,6,7-tetrahydro-1H-indol-2-yl]-1-(2,2-difluoroethyl)pyridinium trifluoromethanesulfonate] | 1280 nM |
| COC(=O)C[n+]1ccc(-c2[nH]c3c(c2Nc2ccccc2)C(=O)CC(C)(C)C3)cc1 [Example 193, 4-[6,6-dimethyl-4-oxo-3-(phenylamino)-4,5,6,7-tetrahydro-1H-indol-2-yl]-1-(2-methoxy-2-oxoethyl)pyridinium bromide] | 921 nM |
| CC1(C)C/C(=N\O)c2c([nH]c(-c3ccncc3)c2Nc2ccccc2)C1 [Example 194, 4-(hydroxyimino)-6,6-dimethyl-N-phenyl-2-(pyridin-4-yl)-4,5,6,7-tetrahydro-1H-indol-3-amine] | 42 nM |
| CC(=O)O/N=C1\CC(C)(C)Cc2[nH]c(-c3ccncc3)c(Nc3ccccc3)c21 [Example 195, 1-({(E)-[6,6-dimethyl-3-(phenylamino)-2-(pyridin-4-yl)-1,5,6,7-tetrahydro-4H-indol-4-ylidene]amino}oxy)ethanone] | 102 nM |
| O=C1CCCc2[nH]c(-c3ccncc3Br)c(Nc3ccccc3)c21 [Example 196, 2-(3-bromopyridin-4-yl)-3-(phenylamino)-1,5,6,7-tetrahydro-4H-indol-4-one] | 36.5 nM |

Other lines, results leading:

| IC50 | Structure (SMILES) |
| --- | --- |
| > 20000 nM | N#Cc1cnccc1-c1[nH]c2c(c1Nc1ccccc1)C(=O)CCC2 [Example 197, 4-[4-oxo-3-(phenylamino)-4,5,6,7-tetrahydro-1H-indol-2-yl]pyridine-3-carbonitrile] |
| 10900 nM | CC1(C)CC(=O)c2c([nH]c(-c3ccncc3C#N)c2Nc2cccc(F)c2)C1 [Example 198, 4-{3-[(3-fluorophenyl)amino]-6,6-dimethyl-4-oxo-4,5,6,7-tetrahydro-1H-indol-2-yl}pyridine-3-carbonitrile] |
| 12 nM | CC1(C)CC(=O)c2c([nH]c(-c3ccncc3Br)c2Nc2ccccc2)C1 [Example 199, 2-(3-bromopyridin-4-yl)-6,6-dimethyl-3-(phenylamino)-1,5,6,7-tetrahydro-4H-indol-4-one] |
| 610 nM | CSc1cc(-c2[nH]c3c(c2Nc2ccccc2)C(=O)CC(C)(C)C3)ccn1 [Example 200, 6,6-dimethyl-2-[2-(methylsulfanyl)pyridin-4-yl]-3-(phenylamino)-1,5,6,7-tetrahydro-4H-indol-4-one] |
| 47.4 nM | CSc1cnccc1-c1[nH]c2c(c1Nc1ccccc1)C(=O)CC(C)(C)C2 [Example 201, 6,6-dimethyl-2-[3-(methylsulfanyl)pyridin-4-yl]-3-(phenylamino)-1,5,6,7-tetrahydro-4H-indol-4-one] |
| 1990 nM | C[S+]([O-])c1cnccc1-c1[nH]c2c(c1Nc1ccccc1)C(=O)CC(C)(C)C2 (stereo not drawn) [Example 202, {4-[6,6-dimethyl-4-oxo-3-(phenylamino)-4,5,6,7-tetrahydro-1H-indol-2-yl]pyridin-3-yl}(methyl)sulfoniumolate] |
| 115 nM | CC1(C)CC(=O)c2c([nH]c(-c3ccnc(N)c3)c2Nc2cccc(Br)c2)C1 [Example 203, 2-(2-aminopyridin-4-yl)-3-[(3-bromophenyl)amino]-6,6-dimethyl-1,5,6,7-tetrahydro-4H-indol-4-one] |
| 42.6 nM | CC1(C)CC(=O)c2c([nH]c(-c3ccnc(Nc4cnn(Cc5ccccc5)c4)c3)c2Nc2ccccc2)C1 [Example 204, 2-{2-[(1-benzyl-1H-pyrazol-4-yl)amino]pyridin-4-yl}-6,6-dimethyl-3-(phenylamino)-1,5,6,7-tetrahydro-4H-indol-4-one] |
| 22.9 nM | Cn1cc(Nc2cc(-c3[nH]c4c(c3Nc3ccccc3)C(=O)CC(C)(C)C4)ccn2)cn1 [Example 205, 6,6-dimethyl-2-{2-[(1-methyl-1H-pyrazol-4-yl)amino]pyridin-4-yl}-3-(phenylamino)-1,5,6,7-tetrahydro-4H-indol-4-one] |
| 9.73 nM | Nc1cc(-c2[nH]c3c(c2Nc2ccccc2)C(=O)CC2(CC2)C3)ccn1 [Example 206, 2′-(2-aminopyridin-4-yl)-3′-(phenylamino)-1′,7′-dihydrospiro[cyclopropane-1,6′-indol]-4′(5′H)-one] |
| 7.32 nM | O=C1CC2(CC2)Cc2[nH]c(-c3ccnc(F)c3)c(Nc3ccccc3)c21 [Example 207, 2′-(2-fluoropyridin-4-yl)-3′-(phenylamino)-1′,7′-dihydrospiro[cyclopropane-1,6′-indol]-4′(5′H)-one] |
| 6.39 nM | O=C1CC2(CC2)Cc2[nH]c(-c3ccncc3F)c(Nc3ccccc3)c21 [Example 208, 2′-(3-fluoropyridin-4-yl)-3′-(phenylamino)-1′,7′-dihydrospiro[cyclopropane-1,6′-indol]-4′(5′H)-one] |
| 3120 nM | Cc1cc(-c2[nH]c3c(c2Nc2ccccc2)C(=O)CC(C)(C)C3)cc(C)n1 [Example 209, 2-(2,6-dimethylpyridin-4-yl)-6,6-dimethyl-3-(phenylamino)-1,5,6,7-tetrahydro-4H-indol-4-one] |
| 130 nM | CC1(C)CC(=O)c2c([nH]c(-c3ccnc4c3OCCO4)c2Nc2ccccc2)C1 [Example 210, 2-(2,3-dihydro[1,4]dioxino[2,3-b]pyridin-8-yl)-6,6-dimethyl-3-(phenylamino)-1,5,6,7-tetrahydro-4H-indol-4-one] |
| 114 nM | Nc1cc(-c2[nH]c3c(c2Nc2ccc(F)cc2)C(=O)CCC3)ccn1 [Example 211, 2-(2-aminopyridin-4-yl)-3-[(4-fluorophenyl)amino]-1,5,6,7-tetrahydro-4H-indol-4-one] |
| 220 nM | Nc1cc(-c2[nH]c3c(c2Nc2ccc(F)c(F)c2)C(=O)CCC3)ccn1 [Example 212, 2-(2-aminopyridin-4-yl)-3-[(3,4-difluorophenyl)amino]-1,5,6,7-tetrahydro-4H-indol-4-one] |
| 12.2 nM | CC1(C)CC(=O)c2c([nH]c(-c3ccnc(F)c3)c2Nc2ccccc2)C1 [Example 213, 2-(2-fluoropyridin-4-yl)-6,6-dimethyl-3-(phenylamino)-1,5,6,7-tetrahydro-4H-indol-4-one] |
| 67.6 nM | CC1(C)CC(=O)c2c([nH]c(-c3ccnc(Cl)c3Cl)c2Nc2ccccc2)C1 [Example 214, 2-(2,3-dichloropyridin-4-yl)-6,6-dimethyl-3-(phenylamino)-1,5,6,7-tetrahydro-4H-indol-4-one] |
